Entries after “also recorded” stand apart in the source; their conditions may differ. Where two headings read alike, the source gives them in different places.
Legend:
SUM149PT tumor organoids = test: Tumor organoid cytotoxicity (CellTiter Glo 3D), SUM149PT; format: cell-based; settings: for IC50: Homo sapiens; for increase in potency of the chemotherapy: SUM149PT BRCA1 mutant tumor organoids, + 1.9 μM Compound 6; for improvement of IC50 potency: combined with Compound 6; for mean synergy score (Bliss): SUM149PT cells
Procedure: Tumor organoid culture—Cell lines were cultured as tumor organoids by seeding 2,000 to 5,000 cells/well into uncoated 96 well U-bottom Ultra Low Attachment Microplates (Corning) using their corresponding medium.
Luminescence was recorded using the EnVision plate reader (PerkinElmer) and values normalized to the controls using GraphPad Prism.

[1] = test system: MDA-MB-231 tumor organoids; test: Tumor organoid cytotoxicity, MDA-MB-231; format: cell-based; settings: for IC50: Homo sapiens
Procedure: Tumor organoid culture—Cell lines were cultured as tumor organoids by seeding 2,000 to 5,000 cells/well into uncoated 96 well U-bottom Ultra Low Attachment Microplates (Corning) using their corresponding medium. Cell aggregation was then promoted by centrifugation of the plates for 15 min at 1,000 rpm followed by the addition of Matrigel (Corning) to a 2-5% final concentration. Tumor organoids were maintained under standard cell culture conditions for 72 h prior to drug treatment.
Organoids were then transferred to a white solid bottom 96 well plate and incubated with an equal volume of CellTiter Glo 3D reagent (Promega) for 45 min on a shaker at 400 rpm. Luminescence was recorded using the EnVision plate reader (PerkinElmer) and values normalized to the controls using GraphPad Prism.

cat-CHD1L = target: T1, cat-CHD1L (Homo sapiens, UniProt Q86WJ1); test: CHD1L ATPase assay measured by ADP-Glo; format: biochemical
T1 construct: made in house; host or cells: Rosetta 2 (DE3) pLysS cells (E. coli)
T1 sequence (Q86WJ1 16-619): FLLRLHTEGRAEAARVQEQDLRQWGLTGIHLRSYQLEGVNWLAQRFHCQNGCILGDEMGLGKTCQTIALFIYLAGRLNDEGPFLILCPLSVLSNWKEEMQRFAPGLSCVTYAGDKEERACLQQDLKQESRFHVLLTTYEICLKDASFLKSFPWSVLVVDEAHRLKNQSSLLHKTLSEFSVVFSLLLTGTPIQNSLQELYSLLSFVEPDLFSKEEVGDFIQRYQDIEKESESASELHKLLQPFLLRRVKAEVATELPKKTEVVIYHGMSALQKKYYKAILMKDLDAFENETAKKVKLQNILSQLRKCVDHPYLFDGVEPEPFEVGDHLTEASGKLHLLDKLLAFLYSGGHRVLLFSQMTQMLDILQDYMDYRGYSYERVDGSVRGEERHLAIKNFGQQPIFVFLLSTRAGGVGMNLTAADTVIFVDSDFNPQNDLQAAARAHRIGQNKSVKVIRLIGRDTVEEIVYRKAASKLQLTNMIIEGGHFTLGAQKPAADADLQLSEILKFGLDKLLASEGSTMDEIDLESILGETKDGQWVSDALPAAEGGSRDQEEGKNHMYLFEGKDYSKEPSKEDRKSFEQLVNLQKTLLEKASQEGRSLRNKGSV
Procedure: No enzyme control was used to measure the background. […] The reaction was incubated at 37° C. for 1 h. The assay plate was brought to RT before 5 μL of ADP-glo™ Reagent (Promega, Cat. No. V9102) was added to remove unreacted ATP. The ATP depletion step was carried out at RT for 40 min before 10 μL of Kinase Detection Reagent was added and incubated for 30-60 min to convert the ADP produced from the enzyme assay back to ATP for luciferase rection to convert to light for detection. An EnVision plate reader (PerkinElmer) was used to detect luminescence from the ADP-glo assay and the enzyme activity was determined after background subtraction and normalization to enzyme only control.

CHD1L = target: T2, CHD1L (Homo sapiens, UniProt Q86WJ1); test: CHD1L trapping (in situ subcellular fractionation, immunofluorescence); format: cell-based; settings: for CHD1L trapping onto chromatin/nucleosomes: single agent, SUM149PT + 0.01% MMS 4 h, BC and CRC cells
T2 sequence (Q86WJ1 1-897): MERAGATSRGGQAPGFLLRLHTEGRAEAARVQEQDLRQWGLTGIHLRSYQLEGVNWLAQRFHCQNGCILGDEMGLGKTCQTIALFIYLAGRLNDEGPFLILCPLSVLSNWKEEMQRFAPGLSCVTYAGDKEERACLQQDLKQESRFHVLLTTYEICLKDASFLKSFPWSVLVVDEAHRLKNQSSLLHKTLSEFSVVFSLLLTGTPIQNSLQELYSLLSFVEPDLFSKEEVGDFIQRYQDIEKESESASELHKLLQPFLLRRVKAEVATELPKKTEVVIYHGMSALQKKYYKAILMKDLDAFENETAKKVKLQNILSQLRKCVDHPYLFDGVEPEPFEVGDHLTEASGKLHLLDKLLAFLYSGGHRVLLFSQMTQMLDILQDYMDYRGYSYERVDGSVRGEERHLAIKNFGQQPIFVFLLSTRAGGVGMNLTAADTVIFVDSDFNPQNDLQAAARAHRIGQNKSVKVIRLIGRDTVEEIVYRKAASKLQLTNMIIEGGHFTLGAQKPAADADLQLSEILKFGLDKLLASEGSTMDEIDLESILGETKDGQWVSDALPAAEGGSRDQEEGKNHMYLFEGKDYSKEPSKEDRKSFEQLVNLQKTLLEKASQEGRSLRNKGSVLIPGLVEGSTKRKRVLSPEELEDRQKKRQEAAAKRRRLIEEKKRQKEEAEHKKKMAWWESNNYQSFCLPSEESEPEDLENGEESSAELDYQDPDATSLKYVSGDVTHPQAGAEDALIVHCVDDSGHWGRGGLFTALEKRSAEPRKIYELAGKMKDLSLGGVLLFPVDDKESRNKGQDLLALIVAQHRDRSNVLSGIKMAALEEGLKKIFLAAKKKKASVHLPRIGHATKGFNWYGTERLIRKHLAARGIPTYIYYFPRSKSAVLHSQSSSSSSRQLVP
Excerpt: Other studies on the role of CHD1L used cell lines with knockdown or knockouts of the gene encoding for CHD1L and have never been able to study the result of its enzymatic inhibition.

[2] = MDA-MB-231, MDA-MB-231 (BRCA wildtype HR-proficient), read-out: IC50, tumor organoid viability, single agent

In the case of O=c1[nH]cc(F)c(=O)[nH]1 [Compound 5-FU, 5-fluorouracil], the “IC50 5-FU (μM) in SUM149PT” value (SUM149PT tumor organoids; Compound 13 0 μM) is reported as “Resistant”, the IC50 (SUM149PT tumor organoids; SUM149PT, Compound 13 2 μM, read-out: IC50 5-FU (μM) in SUM149PT) is reported as 23.8 µM and the IC50 (SUM149PT tumor organoids; SUM149PT, Compound 13 2.25 μM, read-out: IC50 5-FU (μM) in SUM149PT) is reported as 23 µM. The IC50 (SUM149PT tumor organoids; SUM149PT, Compound 13 2.5 μM, read-out: IC50 5-FU (μM) in SUM149PT) was 14.4 µM, the “increase in potency of the chemotherapy” value (SUM149PT tumor organoids) was 10 fold and the “improvement of IC50 potency” value (SUM149PT tumor organoids; SUM149PT tumor organoids) was 10 fold. The “IC50 5-FU (μM) in MDA-MB-231” value ([1]; Compound 13 0 μM) was “Resistant”, the IC50 ([1]; MDA-MB-231, Compound 13 2 μM, read-out: IC50 5-FU (μM) in MDA-MB-231) was 23.5 µM and the IC50 ([1]; MDA-MB-231, Compound 13 2.25 μM, read-out: IC50 5-FU (μM) in MDA-MB-231) was 9.1 µM. The IC50 ([1]; MDA-MB-231, Compound 13 2.5 μM, read-out: IC50 5-FU (μM) in MDA-MB-231) was 4.6 µM.
With Cc1cc(Nc2ccc(NC(=O)Cc3cccs3)cc2)nc(N2CCCC2)n1 [Compound 6, N-(4-((6-methyl-2-(pyrrolidin-1-yl)pyrimidin-4-yl)amino)phenyl)-2-(thiophen-2-yl)acetamide] the IC50 (SUM149PT tumor organoids; SUM149PT, SUM149PT (BRCA1 mutant HR-deficient), read-out: IC50, tumor organoid viability, single agent) was 1.7 µM, the “Bliss synergy score, cytotoxicity” value (SUM149PT tumor organoids; SUM149PT tumor organoids, Compound 6 combined with 5-FU) was 59 and the “inhibition of CHD1L ATPase activity” value (cat-CHD1L) was “potently inhibited”. The “CHD1L trapping in combination” value (CHD1L; Compound 6 combined with olaparib) was “complete decrease in the CHD1L trapping”, the “CHD1L trapping onto chromatin/nucleosomes” value (CHD1L) was “dose-dependent increase in CHD1L trapping” and the IC50 [1, 2] was 3.3 µM.
Cc1cc(Nc2ccc(NC(=O)Cc3cc(Br)cs3)cc2)nc(N2CCCC2)n1 [Compound 6.11, 2-(4-bromothiophen-2-yl)-N-(4-((6-methyl-2-(pyrrolidin-1-yl)pyrimidin-4-yl)amino)phenyl)acetamide] was tested, and the IC50 (SUM149PT tumor organoids; SUM149PT, read-out: IC50, tumor organoid viability, single agent, SUM149PT (BRCA1 mutant HR-deficient)) was roughly 1.7 µM, the “mean synergy score (Bliss)” value (SUM149PT tumor organoids; combined with 5-FU) was “about 60” and the “mean synergy score (Bliss)” value (SUM149PT tumor organoids; combined with Olaparib) was “about 58”. For the same molecule, the “mean synergy score (Bliss)” value (SUM149PT tumor organoids; combined with docetaxel) was “about 56” and the IC50 [1, 2] was roughly 3.3 µM.
COc1cccc2c1C(=O)c1c(O)c3c(c(O)c1C2=O)C[C@@](O)(C(=O)CO)C[C@@H]3O[C@H]1C[C@H](N)[C@H](O)[C@H](C)O1 [doxorubicin] gave an IC50 (SUM149PT tumor organoids; SUM149PT, Compound 13 0 μM, read-out: IC50 doxorubicin (μM) in SUM149PT) of 0.505 µM, an IC50 (SUM149PT tumor organoids; SUM149PT, Compound 13 2 μM, read-out: IC50 doxorubicin (μM) in SUM149PT) of 0.0944 µM and an IC50 (SUM149PT tumor organoids; SUM149PT, Compound 13 2.25 μM, read-out: IC50 doxorubicin (μM) in SUM149PT) of 0.016 µM. For the same molecule, the IC50 (SUM149PT tumor organoids; SUM149PT, Compound 13 2.5 μM, read-out: IC50 doxorubicin (μM) in SUM149PT) was 0.279 µM, the IC50 (SUM149PT tumor organoids; SUM149PT tumor organoids, 72 h, + non-lethal doses of Compound 6, read-out: IC50 of the drug in combination) was 0.28 ± 0.01 µM and the “increase in potency of the chemotherapy” value (SUM149PT tumor organoids) was 20 fold. The “improvement of IC50 potency” value (SUM149PT tumor organoids; SUM149PT tumor organoids) was 2 fold, the “inhibition of CHD1L ATPase activity” value (cat-CHD1L) was “do not trap CHD1L or inhibit CHD1L ATPase activity” and the “CHD1L trapping onto chromatin/nucleosomes” value (CHD1L) was “do not trap CHD1L”. For the same molecule, the “CHD1L trapping onto chromatin/nucleosomes” value (CHD1L; listed as Doxorubicin) was “does not cause a stable interaction of CHD1L and chromatin”, the IC50 ([1]; MDA-MB-231, Compound 13 0 μM, read-out: IC50 doxorubicin (nM) in MDA-MB-231) was 0.346 µM and the IC50 ([1]; MDA-MB-231, Compound 13 2 μM, read-out: IC50 doxorubicin (nM) in MDA-MB-231) was 0.0922 µM. It also gave an IC50 ([1]; MDA-MB-231, Compound 13 2.25 μM, read-out: IC50 doxorubicin (nM) in MDA-MB-231) of 0.0815 µM and an IC50 ([1]; MDA-MB-231, Compound 13 2.5 μM, read-out: IC50 doxorubicin (nM) in MDA-MB-231) of 0.0202 µM.
Molecule O=C(c1cc(Cc2n[nH]c(=O)c3ccccc23)ccc1F)N1CCN(C(=O)C2CC2)CC1 [olaparib] has an IC50 (SUM149PT tumor organoids; SUM149PT, 72 h, read-out: IC50 of the drug alone, SUM149PT tumor organoids, 72 h) of 170 ± 27 µM, an IC50 (SUM149PT tumor organoids; SUM149PT, 72 h, read-out: IC50 of the drug in combination, SUM149PT tumor organoids, 72 h, + non-lethal doses of Compound 6) of 19 ± 0.56 µM and an IC50 (SUM149PT tumor organoids; SUM149PT, read-out: IC50 Olaparib (μM) in SUM149PT, Compound 13 0 μM) of 400 µM. The IC50 (SUM149PT tumor organoids; SUM149PT, read-out: IC50 Olaparib (μM) in SUM149PT, Compound 13 2 μM) was 41.8 µM, the IC50 (SUM149PT tumor organoids; SUM149PT, read-out: IC50 Olaparib (μM) in SUM149PT, Compound 13 2.25 μM) was 13.4 µM and the IC50 (SUM149PT tumor organoids; SUM149PT, read-out: IC50 Olaparib (μM) in SUM149PT, Compound 13 2.5 μM) was 19 µM. For the same molecule, the “increase in potency of the chemotherapy” value (SUM149PT tumor organoids) was 10 fold, the “improvement of IC50 potency” value (SUM149PT tumor organoids; SUM149PT tumor organoids) was 9 fold and the “inhibition of CHD1L ATPase activity” value (cat-CHD1L) was “do not trap CHD1L or inhibit CHD1L ATPase activity”. For the same molecule, the “CHD1L trapping onto chromatin/nucleosomes” value (CHD1L) was “do not trap CHD1L; also recorded: did not show CHD1L trapping”, the IC50 ([1]; MDA-MB-231, Compound 13 0 μM, read-out: IC50 Olaparib (μM) in MDA-MB-231) was 102 µM and the IC50 ([1]; MDA-MB-231, Compound 13 2 μM, read-out: IC50 Olaparib (μM) in MDA-MB-231) was 18.7 µM. The IC50 ([1]; MDA-MB-231, Compound 13 2.25 μM, read-out: IC50 Olaparib (μM) in MDA-MB-231) was 12.1 µM and the IC50 ([1]; MDA-MB-231, Compound 13 2.5 μM, read-out: IC50 Olaparib (μM) in MDA-MB-231) was 3.1 µM.
